According to patent publication US20080031866A1, “METHOD FOR MODULATING THE PHARMACOKINETICS AND METABOLISM OF A THERAPEUTIC AGENT” (priority 2006, published 2008):
Values after ≈ are worked out from the molar mass of the structure shown. Like-named read-outs stand apart in the source and are kept apart here.

Legend:
[1] = system: β-glucuronidase derived from E. Coli; assay: In vitro incubation of Glu A and Glu B with β-glucuronidase; type: in vitro ADME; details: for Glucuronide remaining: 500 μM glucuronide, β-glucuronidase, 37° C.; for Stability in control samples without β-glucuronidase: control incubation, no enzyme
Protocol: β-glucuronidase derived from E. Coli, glucurase at a concentration of 5,000 units/ml and bovine serum albumin were obtained from Sigma (St. Louis, Mo.). Glu A and Glu B were incubated at a concentration of 500 μM with β-glucuronidase ([…]) in 100 mM potassium acetate buffer solution in a 0.5 ml filter tube. The incubations were run in triplicate.
To each filter tube, 65 μl of 100 mM potassium acetate buffer, 5 μl of bovine serum albumin, and 100 μl of glucurase were added (100 mM potassium acetate was added to the control wells). The pH was adjusted to either pH 5.0 using 1N potassium hydroxide. 10 μl of 10 mM GluA or GluB were then added and the filter tubes were incubated for 30 minutes, 60 minutes or 18 hours at 37° C. Following incubation 20 μl of acetonitrile was added to the filter tubes and the filter tubes were centrifuged. The resulting filtrate was then analyzed by HPLC.
Glu A (500 μM) and Glu B (500 μM) were incubated with β-glucuronidase at 37° C. in pH 5.0 and pH 7.4 buffers. The pH 7.4 buffer is representative of the in vivo pH range in the GI tract. The results of each treatment are shown in Tables 5 (pH 5.0) and Table 6 (pH 7.4).
Glu A was prepared fresh in these experiments. A time-dependent incubation of Glu A and Glu B was carried out for 2, 4 and 6 hours.

Solubility = type: physicochemical
[2] = Absorption (physicochemical properties)
Stability in DMSO = type: physicochemical; details: especially after freezing and thawing

Compound | Glucuronide remaining ([1]; pH 5.0, 0 hr) | Glucuronide remaining ([1]; pH 5.0, 0.5 hrs) | Glucuronide remaining ([1]; pH 5.0, 1 hr) | Glucuronide remaining ([1]; pH 7.4, 0 hr) | Glucuronide remaining ([1]; pH 7.4, 2 hrs) | Glucuronide remaining ([1]; pH 7.4, 4 hrs) | Stability in control samples without β-glucuronidase [1] | solubility (Solubility; aqueous media, aqueous buffer, pH 3.0, read-out: Solubility in aqueous media) [µg/mL] | solubility (Solubility; aqueous media, aqueous buffer, pH 7.0, read-out: Solubility in aqueous media) [µg/mL] | solubility (Solubility; aqueous with cosolvent or surfactant or cyclodextrin, 20/80-weight% Tween 80/DI water, read-out: Solubility) [µg/mL] | solubility (Solubility; neat PEG-400, organic solvent or mixture, read-out: Solubility) [µg/mL] | Absorption [2] [cm/s] | Glucuronide remaining ([1]; pH 5.0, 18 hrs) [% Glu-A] | Glucuronide remaining ([1]; pH 7.4, 6 hrs) [% Glu-A] | Stability in DMSO (Stability in DMSO)
COc1cc2c(cc1OC)-c1nn(C3OC(C(=O)O)C(O)C(O)C3O)c(Nc3cccc(F)c3)c1C2 (stereo in doubt) [Cpd 1-GluB] | 100% Glu-B | 100% Glu-B | 100% Glu-B | 100% Glu-B | 100% Glu-B | 100% Glu-B | stable | – | – | – | – | – | – | – | –
COc1cc2c(cc1OC)-c1n[nH]c(Nc3cccc(F)c3)c1C2 [Compound 1, (6,7-dimethoxy-2,4-dihydro-indeno[1,2-c]pyrazol-3-yl)-(3-fluoro-phenyl)-amine] | – | – | – | – | – | – | – | < 6 | < 2 | 10000 (≈ 30.7 mM) | 7500 (≈ 23.1 mM) | 1.3e-05 | – | – | –
COc1cc2c(cc1OC)-c1n[nH]c(N(c3cccc(F)c3)[C@H]3O[C@@H](C(=O)O)[C@H](O)[C@@H](O)[C@@H]3O)c1C2 [Cpd 1-GluA] | 100% Glu-A | 60% Glu-A | 34% Glu-A | 100% Glu-A | 67% Glu-A | 48% Glu-A | stable | – | – | – | – | – | 0 | 23 | relatively unstable
